From US11154544B2, “Amide derivatives as Nav1.7 and Nav1.8 blockers” (RaQualia Pharma Inc., priority 2017, dated 2021)

biological target: Nav1.7 (Homo sapiens (Human), UniProt Q15858); experiment: EFS-FRET assay; type: cell-based; conditions: EFS-FRET, CHO cells expressing human Nav1.7; read-out: IC50 against Nav1.7
Experimental: This screen is used to determine the effects of compounds on human Nav1.7 channels, utilizing electrical field stimulation (EFS) system in 96-well plate format on FDSS (Hamamatsu Photonics) platform. The change of membrane potential is monitored with FRET dye pair, DiSBAC2(3) and PTS 18.
CHO (Chinese hamster ovary) cells expressing human Nav1.7 channels are grown in T225 flasks, in a 5% CO2 humidified incubator to about 80% confluence. Media composition consists of HAM/F^.12 with Glutamax I, 10% FCS, 100 units/mL penicillin and 100 microgram/mL hygromycin.
Seed each cell lines (1×10^5 cells/well) into 96-well plates prior to experimentation.
Incubate at 37° C. in 5% CO2, for 24 hours.
Wash each well with assay buffer (140 mM NaCl, […], 10 mM D-Glucose, 2 mM CaCl2, 1 mM MgCl2, 10 mM HEPES, pH 7.4 adjusted with NaOH) twice.
Add 1st loading solution containing 10 microM PTS18 and 0.06% Pluronic F-127 in assay buffer.
Incubate the plate at rt in dark for 1 hour. • Remove 1st loading solution and add 2nd loading solution containing 12.5 microM DiSBAC2(3), 1.25 mM Xylene Fast Yellow and 0.0075% Pluronic F-127 in assay buffer. • Place the plate under the dark at rt for 25 minutes. • Add compound solutions into the assay plate. • Set the assay plate in FDSS and place an EFS device on the plate. • Measure EFS-induced fluorescent response by FDSS.
The data are analyzed and reported as normalized ratios of intensities measured at […]. The process of calculating these ratios is performed as follows:
This analysis is performed using a computerized specific program designed for
FDSS generated data. Fluorescence ratio values are plotted using XLfit to determine an IC50 value for each, compound.

Sequence of Nav1.7 (Q15858 whole entry): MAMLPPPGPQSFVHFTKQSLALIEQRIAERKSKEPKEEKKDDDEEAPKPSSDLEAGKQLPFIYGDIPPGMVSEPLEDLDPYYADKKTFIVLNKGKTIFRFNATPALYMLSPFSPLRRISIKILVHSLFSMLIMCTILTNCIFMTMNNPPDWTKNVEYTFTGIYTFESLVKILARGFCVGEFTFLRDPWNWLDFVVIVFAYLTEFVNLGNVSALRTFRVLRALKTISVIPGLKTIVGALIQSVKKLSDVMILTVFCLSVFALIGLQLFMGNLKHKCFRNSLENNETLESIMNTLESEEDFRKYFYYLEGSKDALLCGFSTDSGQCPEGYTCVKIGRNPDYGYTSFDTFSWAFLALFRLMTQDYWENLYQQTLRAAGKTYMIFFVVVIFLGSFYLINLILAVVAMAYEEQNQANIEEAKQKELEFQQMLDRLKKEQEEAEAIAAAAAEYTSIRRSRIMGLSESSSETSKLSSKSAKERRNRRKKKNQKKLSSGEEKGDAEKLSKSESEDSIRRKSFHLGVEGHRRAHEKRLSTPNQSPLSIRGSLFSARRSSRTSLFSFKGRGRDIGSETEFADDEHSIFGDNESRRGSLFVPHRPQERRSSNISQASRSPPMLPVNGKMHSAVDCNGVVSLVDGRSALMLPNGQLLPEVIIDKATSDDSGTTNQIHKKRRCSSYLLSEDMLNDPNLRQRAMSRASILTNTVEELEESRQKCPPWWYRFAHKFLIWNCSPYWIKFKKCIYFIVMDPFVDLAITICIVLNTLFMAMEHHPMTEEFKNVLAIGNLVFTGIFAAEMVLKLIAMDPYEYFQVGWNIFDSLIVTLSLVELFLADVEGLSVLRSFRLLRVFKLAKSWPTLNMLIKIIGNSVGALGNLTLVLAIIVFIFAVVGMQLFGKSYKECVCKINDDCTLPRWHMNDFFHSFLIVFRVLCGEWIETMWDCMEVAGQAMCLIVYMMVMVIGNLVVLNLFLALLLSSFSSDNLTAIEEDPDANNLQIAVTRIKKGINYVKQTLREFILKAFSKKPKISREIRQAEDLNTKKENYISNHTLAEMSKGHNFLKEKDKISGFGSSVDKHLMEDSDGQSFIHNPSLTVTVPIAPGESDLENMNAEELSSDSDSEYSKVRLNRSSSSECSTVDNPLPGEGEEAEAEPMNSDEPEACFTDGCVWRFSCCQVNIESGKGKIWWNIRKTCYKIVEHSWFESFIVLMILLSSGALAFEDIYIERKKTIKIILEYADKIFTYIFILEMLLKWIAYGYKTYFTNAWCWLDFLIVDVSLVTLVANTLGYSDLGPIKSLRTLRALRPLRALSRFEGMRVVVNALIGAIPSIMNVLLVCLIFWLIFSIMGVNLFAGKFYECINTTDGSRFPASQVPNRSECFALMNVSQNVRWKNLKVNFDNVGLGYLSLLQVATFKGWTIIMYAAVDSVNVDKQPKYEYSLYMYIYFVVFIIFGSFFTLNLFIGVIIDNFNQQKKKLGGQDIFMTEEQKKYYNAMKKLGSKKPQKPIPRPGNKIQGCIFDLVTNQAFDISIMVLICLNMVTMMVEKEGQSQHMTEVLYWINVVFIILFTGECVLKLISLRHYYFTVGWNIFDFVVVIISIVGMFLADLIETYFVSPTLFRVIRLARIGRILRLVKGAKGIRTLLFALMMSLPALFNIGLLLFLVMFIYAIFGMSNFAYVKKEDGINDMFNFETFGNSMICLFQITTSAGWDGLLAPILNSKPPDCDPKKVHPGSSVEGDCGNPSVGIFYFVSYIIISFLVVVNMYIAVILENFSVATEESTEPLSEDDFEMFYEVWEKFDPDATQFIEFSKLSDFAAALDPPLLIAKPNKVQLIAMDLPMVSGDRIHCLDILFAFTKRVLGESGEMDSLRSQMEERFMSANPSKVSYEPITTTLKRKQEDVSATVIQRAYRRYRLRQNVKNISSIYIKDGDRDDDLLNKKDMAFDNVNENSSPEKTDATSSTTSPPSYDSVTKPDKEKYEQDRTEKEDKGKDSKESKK

Row | SMILES | IC50 [nM]
1 | CC(=O)Nc1cc(C(=O)NCCNc2ncc(C(F)(F)F)cc2Cl)ccn1 [Example 2] | < 500
2 | CCC(=O)Nc1cc(C(=O)NCCNc2ncc(C(F)(F)F)cc2Cl)cc(C)n1 [Example 5] | < 500
3 | O=C(NCCNc1ncc(C(F)(F)F)cc1Cl)c1ccnc(NC(=O)C2CC2)c1 [Example 6] | < 500
4 | CC(C)C(=O)Nc1cc(C(=O)NCCNc2ncc(C(F)(F)F)cc2Cl)ccn1 [Example 7] | < 500
5 | CCC(=O)Nc1cc(C(=O)NCCOc2ncc(C(F)(F)F)cc2Cl)ccn1 [Example 9] | < 500
6 | CC(=O)Nc1cc(C(=O)NCCOc2ncc(C(F)(F)F)cc2Cl)cc(C)n1 [Example 10] | < 500
7 | CCC(=O)Nc1cc(C(=O)NCCOc2ccc(C(F)(F)F)cn2)cc(C)n1 [Example 12] | < 500
8 | O=C(NCCOc1ncc(C(F)(F)F)cc1Cl)c1ccnc(NC(=O)C2CC2)c1 [Example 14] | < 500
9 | CCC(=O)Nc1cc(C(=O)NCCOc2ncc(C(F)(F)F)cc2Cl)cc(C)n1 [Example 15] | < 500
10 | Cc1cc(C(=O)NCCOc2ncc(C(F)(F)F)cc2Cl)nc(NC(=O)C2CC2)n1 [Example 16] | < 500
11 | CC(=O)Nc1cc(C(=O)NCCOc2cccc(OC(F)(F)F)c2)cc(C)n1 [Example 19] | < 500
12 | CCC(=O)Nc1cc(C(=O)NCCOc2ccc(C(F)(F)F)cc2Cl)ccn1 [Example 21] | < 500
13 | CC(C)C(=O)Nc1cc(C(=O)NCCOc2ccc(C(F)(F)F)cc2Cl)ccn1 [Example 22] | < 500
14 | CC(=O)Nc1cc(C(=O)NCCOc2ccc(C(F)(F)F)cc2Cl)cc(C)n1 [Example 23] | < 500
15 | Cc1cc(C(=O)NCCOc2ncc(C(F)(F)F)cc2Cl)cc(NC(=O)C2CC2)n1 [Example 25] | < 500
16 | Cc1cc(C(=O)NCCNc2ncc(C(F)(F)F)cc2Cl)cc(NC(=O)C2CC2)n1 [Example 26] | < 500
17 | CC(=O)Nc1cc(C(=O)NCCCc2ncc(C(F)(F)F)cc2Cl)cc(C)n1 [Example 28] | < 500

Other lines, results leading:

Row | IC50 [nM] | SMILES
18 | < 500 | CCC(=O)Nc1cc(C(=O)NCCCc2ncc(C(F)(F)F)cc2Cl)ccn1 [Example 30]
19 | < 500 | CC(=O)Nc1cc(C(=O)NCCOc2ccc(S(F)(F)(F)(F)F)cc2)cc(C)n1 [Example 31]
20 | < 500 | CCC(=O)Nc1cc(C(=O)NCCOc2ccc(S(F)(F)(F)(F)F)cc2)ccn1 [Example 32]
21 | < 500 | O=C(NCCOc1ccc(S(F)(F)(F)(F)F)cc1)c1ccnc(NC(=O)C2CC2)c1 [Example 33]
22 | < 500 | CC(C)C(=O)Nc1cc(C(=O)NCCOc2ccc(S(F)(F)(F)(F)F)cc2)ccn1 [Example 34]
23 | < 500 | O=C(NCCOc1ncc(C(F)(F)F)cc1Cl)c1ccnc(NC(=O)C2CC2)n1 [Example 36]
24 | < 500 | Cc1cc(C(=O)NCCNc2ncc(C(F)(F)F)cc2Cl)cc(NC(=O)C(C)C)n1 [Example 37]
25 | < 500 | O=C(NCCNc1ncc(C(F)(F)F)cc1Cl)c1ccnc(NC(=O)C2CC2)n1 [Example 38]
26 | < 500 | CCC(=O)Nc1cc(C(=O)NCCOc2ccc(C(F)(F)F)cc2Cl)cc(C)n1 [Example 39]
27 | < 500 | O=C(NCCOc1ccc(C(F)(F)F)cc1Cl)c1ccnc(NC(=O)C2CC2)c1 [Example 40]
28 | < 500 | Cc1cc(C(=O)NCCOc2ccc(C(F)(F)F)cc2Cl)cc(NC(=O)C2CC2)n1 [Example 41]
29 | < 500 | Cc1cc(C(=O)NCCOc2ccc(C(F)(F)F)cc2Cl)cc(NC(=O)C(C)C)n1 [Example 42]
30 | < 500 | O=C(NCCOc1ccc(C(F)(F)F)cc1Cl)c1ccnc(NC(=O)C2CC2)n1 [Example 43]
31 | < 500 | CCC(=O)Nc1cc(C(=O)NCCOc2ccc3cc(C(F)(F)F)ccc3n2)cc(C)n1 [Example 44]
32 | < 500 | O=C(NCCOc1ccc2cc(C(F)(F)F)ccc2n1)c1ccnc(NC(=O)C2CC2)c1 [Example 45]
33 | < 500 | CC(C)C(=O)Nc1cc(C(=O)NCCOc2ccc3cc(C(F)(F)F)ccc3n2)ccn1 [Example 46]
34 | < 500 | CCC(=O)Nc1cc(C(=O)NCCOc2ccc3cc(OCC(F)(F)F)ccc3c2)cc(C)n1 [Example 49]
